Assay results as given in patent US20220356186A1, “PERK INHIBITING PYRROLOPYRIMIDINE COMPOUNDS” (HiberCell, Inc., priority 2019, published 2022).
Where two headings read alike, the source gives them in different places.

Assays:
[1] = tested on: GFP-eIF2α in HEK293 cells; assay: PERK cellular assay, TR-FRET in HEK293-EGFP-eIF2a cells after tunicamycin-induced ER stress; type: cell-based; details: Homo sapiens, HEK293-EGFP-eIF2a cells, tunicamycin 2 hours, read-out: Cellular eIF2α IC50
Method in brief: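 Compounds were added 30 min before a 2 h tunicamycin ([…]) challenge of lentivirally made GFP-eIF2α HEK293 cells, 5000/well; lysate TR-FRET ratio was the read-out.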

[2] = molecular target: T1, EIF2AK3 (PERK) catalytic domain (amino acids 536-1116) (Homo sapiens, UniProt Q9NZJ5); assay: PERK in vitro activity assay (isolated), TR-FRET kinase assay; type: biochemical; details: isolated PERK enzyme, 1.5 μM ATP; read-out: Biochemical IC50
T1 construct: EIF2AK3 (PERK) catalytic domain (amino acids 536-1116)
T1 sequence (Q9NZJ5 536-1116): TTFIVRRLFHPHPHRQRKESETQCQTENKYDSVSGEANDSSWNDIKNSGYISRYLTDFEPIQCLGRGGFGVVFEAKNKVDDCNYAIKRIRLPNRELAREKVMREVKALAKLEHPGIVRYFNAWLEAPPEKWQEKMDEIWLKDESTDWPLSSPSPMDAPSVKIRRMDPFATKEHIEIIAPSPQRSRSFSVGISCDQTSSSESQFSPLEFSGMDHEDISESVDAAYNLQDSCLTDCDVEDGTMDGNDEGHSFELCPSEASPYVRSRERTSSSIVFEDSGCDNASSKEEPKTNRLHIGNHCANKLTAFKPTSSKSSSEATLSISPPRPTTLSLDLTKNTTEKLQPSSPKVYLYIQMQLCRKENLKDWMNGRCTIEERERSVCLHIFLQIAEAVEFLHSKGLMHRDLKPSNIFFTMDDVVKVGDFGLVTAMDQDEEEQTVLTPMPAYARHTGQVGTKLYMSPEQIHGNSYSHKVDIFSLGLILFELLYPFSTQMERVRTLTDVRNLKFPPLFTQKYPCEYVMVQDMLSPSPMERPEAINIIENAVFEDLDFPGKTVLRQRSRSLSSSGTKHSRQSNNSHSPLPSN
Method in brief: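 TR-FRET read-out: after EDTA stop (10 mM final), Tb-labelled phospho-eIF2a antibody (2 nM) for 90 min; IC50 via 4-parameter nonlinear fit. Reaction: PERK aa 536-1116, GFP-eIF2a 100-200 nM, HEPES pH 7.5 with MgCl2/EGTA/Brij-35, 45 min, room temperature, started by enzyme.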

select kinases = assay: KINOMEscan in vitro competition binding assay for select kinases

## Cc1cc(NC(=O)Cc2ccc(C(F)(F)F)cc2)ccc1-c1cn(C)c2ncnc(N)c12 [Example 159, N-(4-(4-amino-7-methyl-7H-pyrrolo[2,3-d]pyrimidin-5-yl)-3-methylphenyl)-2-(4-(trifluoromethyl)phenyl)acetamide]
[1]; HEK293, 2 h
  IC50: 501 to 1000 nM
[2]
  IC50: 51 to 100 nM

## Cc1cc(NC(=O)Cc2cccc(C)c2C)ccc1-c1cn(C)c2ncnc(N)c12 [Example 162, N-(4-(4-amino-7-methyl-7H-pyrrolo[2,3-d]pyrimidin-5-yl)-3-methylphenyl)-2-(2,3-dimethylphenyl)acetamide]
[1]; HEK293, 2 h
  IC50: 51 to 100 nM
[2]
  IC50: 1 to 25 nM

## Cc1cc(NC(=O)CC2CC2)ccc1-c1cn(C)c2ncnc(N)c12 [Example 163, N-(4-(4-amino-7-methyl-7H-pyrrolo[2,3-d]pyrimidin-5-yl)-3-methylphenyl)-2-cyclopropyl-acetamide]
[1]; HEK293, 2 h
  IC50: > 5000 nM
[2]
  IC50: > 5000 nM

## Cc1cc(NC(=O)CC2CCC2)ccc1-c1cn(C)c2ncnc(N)c12 [Example 164, N-(4-(4-amino-7-methyl-7H-pyrrolo[2,3-d]pyrimidin-5-yl)-3-methylphenyl)-2-cyclobutyl-acetamide]
[1]; HEK293, 2 h
  IC50: 2000 to 3000 nM
[2]
  IC50: 51 to 100 nM

## Cc1cc(NC(=O)CC2CCCC2)ccc1-c1cn(C)c2ncnc(N)c12 [Example 165, N-(4-(4-amino-7-methyl-7H-pyrrolo[2,3-d]pyrimidin-5-yl)-3-methylphenyl)-2-cyclopentyl-acetamide]
[1]; HEK293, 2 h
  IC50: 501 to 1000 nM
[2]
  IC50: 101 to 250 nM

## Cc1cc(NC(=O)CC2CCCCC2)ccc1-c1cn(C)c2ncnc(N)c12 [Example 166, N-(4-(4-amino-7-methyl-7H-pyrrolo[2,3-d]pyrimidin-5-yl)-3-methylphenyl)-2-cyclohexyl-acetamide]
[1]; HEK293, 2 h
  IC50: 101 to 250 nM
[2]
  IC50: 1 to 25 nM

## Cc1cc(NC(=O)c2ccccc2)ccc1-c1cn(C)c2ncnc(N)c12 [Example 167, N-(4-(4-amino-7-methyl-7H-pyrrolo[2,3-d]pyrimidin-5-yl)-3-methylphenyl)benzamide]
[1]; HEK293, 2 h
  IC50: 3000 to 4000 nM
[2]
  IC50: 101 to 250 nM

## Cc1cc(NC(=O)CCc2ccccc2)ccc1-c1cn(C)c2ncnc(N)c12 [Example 168, N-(4-(4-amino-7-methyl-7H-pyrrolo[2,3-d]pyrimidin-5-yl)-3-methylphenyl)-3-phenylpropanamide]
[1]; HEK293, 2 h
  IC50: 1000 to 2000 nM
[2]
  IC50: 101 to 250 nM

## Cc1cc(NC(=O)Oc2ccccc2)ccc1-c1cn(C)c2ncnc(N)c12 [Example 169, phenyl (4-(4-amino-7-methyl-7H-pyrrolo[2,3-d]pyrimidin-5-yl)-3-methylphenyl)carbamate]
[1]
  IC50: > 5000 nM
[2]
  IC50: 3000 to 4000 nM

## Cc1cc(NC(=O)Nc2ccccc2)ccc1-c1cn(C)c2ncnc(N)c12 [Example 170, 1-(4-(4-amino-7-methyl-7H-pyrrolo[2,3-d]pyrimidin-5-yl)-3-methylphenyl)-3-phenylurea]
[1]; HEK293, 2 h
  IC50: 101 to 250 nM
[2]
  IC50: 1 to 25 nM

## Cc1cc(NC(=O)N(C)c2ccccc2)ccc1-c1cn(C)c2ncnc(N)c12 [Example 171, 3-(4-(4-amino-7-methyl-7H-pyrrolo[2,3-d]pyrimidin-5-yl)-3-methylphenyl)-1-methyl-1-phenylurea]
[1]; HEK293, 2 h
  IC50: 1000 to 2000 nM
[2]
  IC50: 101 to 250 nM

## Cc1cccc(CC(=O)N2CCc3c2ccc(-c2cn(C)c4ncnc(N)c24)c3F)n1 [GSK2656157, reference compound]
Select kinases; kinase AURKB
  KINOMEscan competition binding, inhibition of AURKB: Inhibition (“Inhibition” refers to greater than 50% inhibition)
Select kinases; kinase AXL
  KINOMEscan competition binding, inhibition of AXL: Inhibition (“Inhibition” refers to greater than 50% inhibition)
Select kinases; kinase BLK
  KINOMEscan competition binding, inhibition of BLK: Inhibition (“Inhibition” refers to greater than 50% inhibition)
Select kinases; kinase CAMK4
  KINOMEscan competition binding, inhibition of CAMK4: No inhibition
Select kinases; kinase CDK8
  KINOMEscan competition binding, inhibition of CDK8: Inhibition (“Inhibition” refers to greater than 50% inhibition)
Select kinases; kinase CDK11
  KINOMEscan competition binding, inhibition of CDK11: Inhibition (“Inhibition” refers to greater than 50% inhibition)
Select kinases; kinase CSF1R
  KINOMEscan competition binding, inhibition of CSF1R: Inhibition (“Inhibition” refers to greater than 50% inhibition)
Select kinases; kinase EIF2AK1
  KINOMEscan competition binding, inhibition of EIF2AK1: Inhibition (“Inhibition” refers to greater than 50% inhibition)
Select kinases; kinase EPHB6
  KINOMEscan competition binding, inhibition of EPHB6: Inhibition (“Inhibition” refers to greater than 50% inhibition)
Select kinases; kinase FLT3
  KINOMEscan competition binding, inhibition of FLT3: No Inhibition (“No Inhibition” refers to less than 50% inhibition)
Select kinases; kinase HIPK4
  KINOMEscan competition binding, inhibition of HIPK4: No Inhibition (“No Inhibition” refers to less than 50% inhibition)
Select kinases; kinase LOK
  KINOMEscan competition binding, inhibition of LOK: Inhibition (“Inhibition” refers to greater than 50% inhibition)
Select kinases; kinase MAP3K2
  KINOMEscan competition binding, inhibition of MAP3K2: Inhibition (“Inhibition” refers to greater than 50% inhibition)
Select kinases; kinase MAP3K3
  KINOMEscan competition binding, inhibition of MAP3K3: No Inhibition (“No Inhibition” refers to less than 50% inhibition)
Select kinases; kinase MAP3K15
  KINOMEscan competition binding, inhibition of MAP3K15: No Inhibition (“No Inhibition” refers to less than 50% inhibition)
Select kinases; kinase MEK5
  KINOMEscan competition binding, inhibition of MEK5: Inhibition (“Inhibition” refers to greater than 50% inhibition)
Select kinases; kinase MKNK2
  KINOMEscan competition binding, inhibition of MKNK2: No Inhibition (“No Inhibition” refers to less than 50% inhibition)
Select kinases; kinase NEK1
  KINOMEscan competition binding, inhibition of NEK1: No Inhibition (“No Inhibition” refers to less than 50% inhibition)
Select kinases; kinase NEK5
  KINOMEscan competition binding, inhibition of NEK5: No Inhibition (“No Inhibition” refers to less than 50% inhibition)
Select kinases; kinase PIK3C2B
  KINOMEscan competition binding, inhibition of PIK3C2B: No Inhibition (“No Inhibition” refers to less than 50% inhibition)
Select kinases; kinase RIOK2
  KINOMEscan competition binding, inhibition of RIOK2: Inhibition (“Inhibition” refers to greater than 50% inhibition)
Select kinases; kinase RIPK1
  KINOMEscan competition binding, inhibition of RIPK1: Inhibition (“Inhibition” refers to greater than 50% inhibition)
Select kinases; kinase RIPK2
  KINOMEscan competition binding, inhibition of RIPK2: No Inhibition (“No Inhibition” refers to less than 50% inhibition)
Select kinases; kinase RIPK5
  KINOMEscan competition binding, inhibition of RIPK5: No Inhibition (“No Inhibition” refers to less than 50% inhibition)
Select kinases; kinase TESK1
  KINOMEscan competition binding, inhibition of TESK1: No Inhibition (“No Inhibition” refers to less than 50% inhibition)
Select kinases; kinase TIE2
  KINOMEscan competition binding, inhibition of TIE2: No Inhibition (“No Inhibition” refers to less than 50% inhibition)
Select kinases; kinase TRKA
  KINOMEscan competition binding, inhibition of TRKA: Inhibition (“Inhibition” refers to greater than 50% inhibition)
Select kinases; kinase TRKB
  KINOMEscan competition binding, inhibition of TRKB: No Inhibition (“No Inhibition” refers to less than 50% inhibition)
Select kinases; kinase TRKC
  KINOMEscan competition binding, inhibition of TRKC: Inhibition (“Inhibition” refers to greater than 50% inhibition)
Select kinases; kinase VRK2
  KINOMEscan competition binding, inhibition of VRK2: Inhibition (“Inhibition” refers to greater than 50% inhibition)
Select kinases; kinase YANK1
  KINOMEscan competition binding, inhibition of YANK1: No Inhibition (“No Inhibition” refers to less than 50% inhibition)
Select kinases; kinase YANK2
  KINOMEscan competition binding, inhibition of YANK2: No Inhibition (“No Inhibition” refers to less than 50% inhibition)
Select kinases; kinase YSK4
  KINOMEscan competition binding, inhibition of YSK4: Inhibition (“Inhibition” refers to greater than 50% inhibition)
